Source: patent publication US4789587A, “(1,3-dioxolan-2-yl-methyl)-1H-imidazoles as bactericidal and/or fungicidal agents” (IRE-Celltarg, S.A., priority 1986, dated 1988)
Values after ≈ are worked out from the molar mass of the structure shown.

These compounds were tested on Candida albicans ATCCe 10231 (assay: minimum inhibiting concentration, microtitration in liquid medium, C. albicans). Details: ATCCE10231, RPMI + 20% foetal calf serum, overnight, inoculum 10^5 to 10^6 organisms/ml.
Type: cell-based
Protocol: (§1) The activity of the new derivatives according to the invention was tested in vitro by determining the minimum inhibiting concentration (MIC) of the molecules and their fungicidal (minimum fungicidal concentration MFC) or bactericidal (minimum bactericidal concentration MBC) activity. MFC and MBC are defined as the minimum dose which kills 99.9% of the organisms contained in the inoculum. Two species of yeasts pathogenic to man were used: Candida albicans ATCCe 10231 and Candida tropicalis ATCC 13803. Two species of bacteria were included in the screening: Staphylococcus aureus ATCC 25923 and Salmonella typhimurium LT2, strain Demerec. The MIC is determined after culturing overnight in a liquid medium, by the microtitration method in dishes containing 96 wells over a concentration range of 100 μM to 0.0008 μM. The inoculum contains 10^5 to 10^6 organisms/ml. The culture media consist on the one hand of RPMI to which 20% of foetal calf serum (inactivated for one hour at 56°) has been added in order to determine the fungistatic activity and Mueller-Hinton agar in order to determine the bacteriostatic power of the newly synthesized molecules on the other. The MFC and MBC for each of these molecules are obtained by subculturing a sample containing 10^3 organisms from each well giving negative results for the growth of the organisms, in a solid medium consisting of YM agar (yeasts) or Mueller-Hinton agar (bacteria) overnight at 37°.

MIC	Compound
0.053 µM	CC(=O)N1CCN(c2ccc(OCC3COC(Cn4ccnc4)(c4ccc(Cl)cc4Cl)O3)cc2)CC1 (centres unmarked) [Ketoconazole, reference compound]
0.16 µM	NCC(=O)N1CCN(c2ccc(OCC3COC(Cn4ccnc4)(c4ccc(Cl)cc4Cl)O3)cc2)CC1 (stereo not drawn) [No. 1, Cis-4-[A]-1-(glycyl)piperazine]
0.006 µM	CC(N)C(=O)N1CCN(c2ccc(OCC3COC(Cn4ccnc4)(c4ccc(Cl)cc4Cl)O3)cc2)CC1 (stereo not drawn) [No. 2, Cis-4-[A]-1-(alanyl)piperazine]
0.48 µM	NCC(=O)NCC(=O)N1CCN(c2ccc(OCC3COC(Cn4ccnc4)(c4ccc(Cl)cc4Cl)O3)cc2)CC1 (stereo not drawn) [No. 3, Cis-4-[A]-1-(N-glycylglycyl)piperazine]
19.8 µM	O=C(O)CCC(=O)N1CCN(c2ccc(OCC3COC(Cn4ccnc4)(c4ccc(Cl)cc4Cl)O3)cc2)CC1 (stereo not drawn) [No. 4, Cis-4-[A]-1(succinyl)piperazine]
25 µM	O=C(O)CCC(=O)NCC(=O)N1CCN(c2ccc(OCC3COC(Cn4ccnc4)(c4ccc(Cl)cc4Cl)O3)cc2)CC1 (stereo not drawn) [No. 5, Cis-4-[A]-1-(N-succinylglycyl)piperazine]

What follows are compounds tested on Candida albicans ATCCe 10231 (assay: minimum fungicidal concentration, subculture on YM agar, C. albicans). Details: ATCCE10231, minimum dose which kills 99.9% of the organisms, YM agar, overnight at 37°, read-out: MFC C. albicans.
Type: cell-based
Protocol: as §1

Compound	MFC
CC(=O)N1CCN(c2ccc(OCC3COC(Cn4ccnc4)(c4ccc(Cl)cc4Cl)O3)cc2)CC1 (centres unmarked) [Ketoconazole, reference compound]	0.22 µM (≈ 0.117 µg/mL)
NCC(=O)N1CCN(c2ccc(OCC3COC(Cn4ccnc4)(c4ccc(Cl)cc4Cl)O3)cc2)CC1 (stereo not drawn) [No. 1, Cis-4-[A]-1-(glycyl)piperazine]	2.38 µM (≈ 1.3 µg/mL)
O=C(O)CCC(=O)N1CCN(c2ccc(OCC3COC(Cn4ccnc4)(c4ccc(Cl)cc4Cl)O3)cc2)CC1 (stereo not drawn) [No. 4, Cis-4-[A]-1(succinyl)piperazine]	25 µM (≈ 14.7 µg/mL)

These compounds were tested on Salmonella typhimurium LT2, strain Demerec (assay: minimum inhibiting concentration, microtitration in liquid medium, S. typhimurium). Details: Salmonella enterica, Mueller-Hinton, overnight, inoculum 10^5 to 10^6 organisms/ml, read-out: MIC S. typhimurium.
Type: cell-based
Protocol: as §1

MIC	Compound
> 100 µM	CC(=O)N1CCN(c2ccc(OCC3COC(Cn4ccnc4)(c4ccc(Cl)cc4Cl)O3)cc2)CC1 (centres unmarked) [Ketoconazole, reference compound]

Each compound was assayed on Staphylococcus aureus ATCC 25923 (assay: minimum bactericidal concentration, subculture on Mueller-Hinton agar, S. aureus). Details: ATCC25923, minimum dose which kills 99.9% of the organisms (MBC), overnight at 37°, read-out: MFC S. aureus.
Type: cell-based
Protocol: as §1

Compound	MBC
CC(=O)N1CCN(c2ccc(OCC3COC(Cn4ccnc4)(c4ccc(Cl)cc4Cl)O3)cc2)CC1 (centres unmarked) [Ketoconazole, reference compound]	50 µM (≈ 26.6 µg/mL)
NCC(=O)N1CCN(c2ccc(OCC3COC(Cn4ccnc4)(c4ccc(Cl)cc4Cl)O3)cc2)CC1 (stereo not drawn) [No. 1, Cis-4-[A]-1-(glycyl)piperazine]	25 µM (≈ 13.7 µg/mL)
O=C(O)CCC(=O)N1CCN(c2ccc(OCC3COC(Cn4ccnc4)(c4ccc(Cl)cc4Cl)O3)cc2)CC1 (stereo not drawn) [No. 4, Cis-4-[A]-1(succinyl)piperazine]	> 100 µM

What follows are compounds tested on Staphylococcus aureus ATCC 25923 (assay: minimum inhibiting concentration, microtitration in liquid medium, S. aureus). Details: ATCC25923, Mueller-Hinton, overnight, inoculum 10^5 to 10^6 organisms/ml, read-out: MIC S. aureus.
Type: cell-based
Protocol: as §1

MIC	Compound
20.4 µM (≈ 10.9 µg/mL)	CC(=O)N1CCN(c2ccc(OCC3COC(Cn4ccnc4)(c4ccc(Cl)cc4Cl)O3)cc2)CC1 (centres unmarked) [Ketoconazole, reference compound]
12 µM (≈ 6.55 µg/mL)	NCC(=O)N1CCN(c2ccc(OCC3COC(Cn4ccnc4)(c4ccc(Cl)cc4Cl)O3)cc2)CC1 (stereo not drawn) [No. 1, Cis-4-[A]-1-(glycyl)piperazine]
50.8 µM (≈ 29.9 µg/mL)	O=C(O)CCC(=O)N1CCN(c2ccc(OCC3COC(Cn4ccnc4)(c4ccc(Cl)cc4Cl)O3)cc2)CC1 (stereo not drawn) [No. 4, Cis-4-[A]-1(succinyl)piperazine]
50 µM (≈ 32.3 µg/mL)	O=C(O)CCC(=O)NCC(=O)N1CCN(c2ccc(OCC3COC(Cn4ccnc4)(c4ccc(Cl)cc4Cl)O3)cc2)CC1 (stereo not drawn) [No. 5, Cis-4-[A]-1-(N-succinylglycyl)piperazine]

The compounds below were run on Candida tropicalis ATCC 13803 (assay: minimum inhibiting concentration, microtitration in liquid medium, C. tropicalis). Details: ATCC13803, RPMI + 20% foetal calf serum, overnight, inoculum 10^5 to 10^6 organisms/ml.
Type: cell-based
Protocol: as §1

MIC	Compound
0.049 µM	CC(=O)N1CCN(c2ccc(OCC3COC(Cn4ccnc4)(c4ccc(Cl)cc4Cl)O3)cc2)CC1 (centres unmarked) [Ketoconazole, reference compound]
0.119 µM	NCC(=O)N1CCN(c2ccc(OCC3COC(Cn4ccnc4)(c4ccc(Cl)cc4Cl)O3)cc2)CC1 (stereo not drawn) [No. 1, Cis-4-[A]-1-(glycyl)piperazine]
0.006 µM	CC(N)C(=O)N1CCN(c2ccc(OCC3COC(Cn4ccnc4)(c4ccc(Cl)cc4Cl)O3)cc2)CC1 (stereo not drawn) [No. 2, Cis-4-[A]-1-(alanyl)piperazine]
0.48 µM	NCC(=O)NCC(=O)N1CCN(c2ccc(OCC3COC(Cn4ccnc4)(c4ccc(Cl)cc4Cl)O3)cc2)CC1 (stereo not drawn) [No. 3, Cis-4-[A]-1-(N-glycylglycyl)piperazine]
15.2 µM	O=C(O)CCC(=O)N1CCN(c2ccc(OCC3COC(Cn4ccnc4)(c4ccc(Cl)cc4Cl)O3)cc2)CC1 (stereo not drawn) [No. 4, Cis-4-[A]-1(succinyl)piperazine]
25 µM	O=C(O)CCC(=O)NCC(=O)N1CCN(c2ccc(OCC3COC(Cn4ccnc4)(c4ccc(Cl)cc4Cl)O3)cc2)CC1 (stereo not drawn) [No. 5, Cis-4-[A]-1-(N-succinylglycyl)piperazine]

The compounds below were run on Leydig tumor cells from mice (I-10, ATCC No. CCL83) (assay: in vitro synthesis of steroids: progesterone secretion by Leydig tumor cells induced by cAMP). Details: 9.4×10^-7 M, dibutyryl-cAMP 1×10^-4 M, 3 hours incubation with compound; control 3546, basal 554.
Type: cell-based
From the text: (§2) Ketoconazole and its derivatives reduce the plasma levels of testosterone by inhibiting certain enzymes involved in its biogenesis. Progesterone is a key intermediate in the biogenesis of steroid hormones as it leads especially to estradiol in the ovary and to testosterone in the testicles. The inhibiting power of ketoconazole and its derivatives on the enzyme chain for the biogenesis of steroid hormones may be assessed by measuring the conversion of cholesterol into progesterone. A method of determination which enables this property to be quantified is described below.
(§3) Leydig tumor cells from mice (I-10, ATCC No. CCL83) were grown in a HAM's F10 medium to which 15% of horse serum and 2.5% of foetal calf serum were added. These cells have the property of secreting progesterone and a product of reduction of the latter which is no longer metabolized, 20α-hydroxy-4-pregnen-3-one. This secretion of steroids is induced by the addition of cAMP in the form of its dibutyryl ester (N^6, O^2' -dibutyryladenosine 3', 5'-cyclic monophosphate sodium salt monohydrate (Sigma)). The cells are subcultured in 25 cm^2 falcon dishes and maintained under CO2 (10%). When these become confluent (±1 mg/ml proteins) the medium is replaced with fresh medium containing dibutyryl-cAMP (1×10^-4 M). After incubating for 1 hour with the cAMP, the ketoconazole or its derivatives are added (9.4×10^-7 M) to the culture medium. After incubating for a further period of 3 hours, the supernatants are collected and will be used for the analysis of steroids by HPLC. The cells are rinsed with PBS (phosphate buffered saline: NaCl 0.15M, KCl 2.7 mM, Na2 HPO4 -KH2 PO4 3 mM pH 7.4) and after treating with DOC (deoxycholic acid), the determination of proteins is carried out by the Lowry method.
(§4) For the determination of steroids, 2 ml of the culture medium are brought into contact with 5 ml of ether. The tubes are vortexed for 2 minutes. After freezing the aqueous phases in an isopropanol/solid carbon dioxide bath, the ether phase is collected and the ether is evaporated off under a stream of nitrogen at 30° C. The dry extract is then diluted in 150 μl of water and 150 μl of acetonitrile and centrifuged at 13,000 rpm for 10 minutes. 30 μl of the supernatant are injected into HPLC on a 4 mm diameter, 30 cm long μBondapack C18 column (WATERS). The mobile phase consists of 38% of water, 31% acetonitrile and 31% methanol. The flowrate is 2 ml/min and readings are taken at 245 nm.

Compound	Progesterone (1)
CC(=O)N1CCN(c2ccc(OCC3COC(Cn4ccnc4)(c4ccc(Cl)cc4Cl)O3)cc2)CC1 (centres unmarked) [Ketoconazole, reference compound]	1878 ng of steroids/mg of cell prot
CC(N)C(=O)N1CCN(c2ccc(OCC3COC(Cn4ccnc4)(c4ccc(Cl)cc4Cl)O3)cc2)CC1 (stereo not drawn) [No. 2, Cis-4-[A]-1-(alanyl)piperazine]	1939 ng of steroids/mg of cell prot

Same assay, conditions: Mus musculus, Leydig; 9.4×10^-7 M; relative to cells induced by cAMP in the absence of inhibitor; read-out: Progesterone (2) % enzyme activity relative to control

Compound	progesterone secretion, % of cAMP-induced control at 0.94 µM
CC(=O)N1CCN(c2ccc(OCC3COC(Cn4ccnc4)(c4ccc(Cl)cc4Cl)O3)cc2)CC1 (centres unmarked) [Ketoconazole, reference compound]	53%
CC(N)C(=O)N1CCN(c2ccc(OCC3COC(Cn4ccnc4)(c4ccc(Cl)cc4Cl)O3)cc2)CC1 (stereo not drawn) [No. 2, Cis-4-[A]-1-(alanyl)piperazine]	55%

What follows are compounds tested on Candida tropicalis ATCC 13803 (assay: minimum fungicidal concentration, subculture on YM agar, C. tropicalis). Details: ATCC13803, minimum dose which kills 99.9% of the organisms, YM agar, overnight at 37°, read-out: MFC C. tropicalis.
Type: cell-based
Protocol: as §1

Compound	MFC
CC(=O)N1CCN(c2ccc(OCC3COC(Cn4ccnc4)(c4ccc(Cl)cc4Cl)O3)cc2)CC1 (centres unmarked) [Ketoconazole, reference compound]	4.88 µM (≈ 2.59 µg/mL)
NCC(=O)N1CCN(c2ccc(OCC3COC(Cn4ccnc4)(c4ccc(Cl)cc4Cl)O3)cc2)CC1 (stereo not drawn) [No. 1, Cis-4-[A]-1-(glycyl)piperazine]	1.3 µM (≈ 0.71 µg/mL)
O=C(O)CCC(=O)N1CCN(c2ccc(OCC3COC(Cn4ccnc4)(c4ccc(Cl)cc4Cl)O3)cc2)CC1 (stereo not drawn) [No. 4, Cis-4-[A]-1(succinyl)piperazine]	50 µM (≈ 29.5 µg/mL)

The compounds below were run on Leydig tumor cells from mice (I-10, ATCC No. CCL83) (assay: in vitro synthesis of steroids: 20α-hydroxy-4-pregnen-3-one secretion by Leydig tumor cells induced by cAMP). Details: 9.4×10^-7 M, dibutyryl-cAMP 1×10^-4 M, 3 hours incubation with compound; control 1744, basal 785.
Type: cell-based
From the text: as §2, §3, §4

Compound	20α-OH-4-pregnen-3-one (1)
CC(=O)N1CCN(c2ccc(OCC3COC(Cn4ccnc4)(c4ccc(Cl)cc4Cl)O3)cc2)CC1 (centres unmarked) [Ketoconazole, reference compound]	1296 ng of steroids/mg of cell prot
CC(N)C(=O)N1CCN(c2ccc(OCC3COC(Cn4ccnc4)(c4ccc(Cl)cc4Cl)O3)cc2)CC1 (stereo not drawn) [No. 2, Cis-4-[A]-1-(alanyl)piperazine]	1299 ng of steroids/mg of cell prot

Same assay, conditions: Mus musculus, Leydig; 9.4×10^-7 M; relative to cells induced by cAMP in the absence of inhibitor; read-out: 20α-OH-4-pregnen-3-one (2) % enzyme activity relative to control

Compound	activity at 0.94 µM
CC(=O)N1CCN(c2ccc(OCC3COC(Cn4ccnc4)(c4ccc(Cl)cc4Cl)O3)cc2)CC1 (centres unmarked) [Ketoconazole, reference compound]	74%
CC(N)C(=O)N1CCN(c2ccc(OCC3COC(Cn4ccnc4)(c4ccc(Cl)cc4Cl)O3)cc2)CC1 (stereo not drawn) [No. 2, Cis-4-[A]-1-(alanyl)piperazine]	74%

Each compound was assayed on Salmonella typhimurium LT2, strain Demerec (assay: minimum bactericidal concentration, subculture on Mueller-Hinton agar, S. typhimurium). Details: Salmonella enterica, minimum dose which kills 99.9% of the organisms (MBC), overnight at 37°, read-out: MFC S. typhimurium.
Type: cell-based
Protocol: as §1, with “The MFC and MBC for each of these molecules are obtained by subculturing a sample containing 10^3 organisms from each well giving negative results for the growth of the organisms, in a solid medium consisting of YM agar (yeasts) or Mueller-Hinton agar (bacteria) overnight at 37°.” left out

Compound	MBC
CC(=O)N1CCN(c2ccc(OCC3COC(Cn4ccnc4)(c4ccc(Cl)cc4Cl)O3)cc2)CC1 (centres unmarked) [Ketoconazole, reference compound]	> 100 µM
